Measurements as given in US6538029B1, “Methods for treatment of renal cell carcinoma” (Cell Pathways, priority 2002, dated 2003).
Where a name gives a salt, the structure may show the parent alone. Read-outs that look alike come from different tables or passages of the source.

Tests used:
[1] = rat, in vivo
[2] = Single, escalating dose normal human volunteer clinical trial; type: in vivo; details: normal human volunteers, oral single escalating dose, any dose (50 mg-700 TDD)
[3] = Acute and seven-dose toxicity in dogs (capsules); details: both, dog, in vivo, po, 1000 mg/kg
Protocol: (§3) Therefore, these dogs were subsequently administered seven consecutive doses of 1000 mg/kg/day.

[4] = tested on: renal cell carcinoma; assay: Human clinical study in locally advanced or metastatic renal cell cancer; type: in vivo
Protocol: Patients were treated with 400 mg daily (200 mg twice daily) and continued at this dose throughout the study, provided no intolerable toxicity or disease progression occurred. Disease response was assessed by physical examination, chest x-ray and MRI or CT scan every eight weeks.
Nineteen patients with heavily pre-treated advanced, progressive renal cell carcinoma were entered into the study. […] The patients were on drug daily for a minimum of eight weeks.
The adverse events, which were reported (regardless of relationship), were of the nature and severity expected in this patient population.

[5] = Seven-day dose-range finding study in rats; type: in vivo; details: seven days
[6] = 91-day long-term safety assessment study in rats; type: in vivo
Source text: These changes were not associated with any gross clinical abnormality.

[7] = tested on: PDEI; assay: PDE inhibition, PDEI (similar protocols); type: biochemical
[8] = tested on: 786-O cells; assay: Apoptosis on 786-O cells (Roche Cell Death Assay); type: cell-based, human; details: Homo sapiens, 786-0; 48 hours with drug; read-out: IC50 for induction of apoptosis in the 786-O cell line
Protocol: Testing of PDE10-Inhibiting Compounds for Apoptosis on Renal Carcinoma (786-O) Cells. […] After 24 hours, the media was removed and the same media containing the drug was added to the cells (0.1% DMSO final concentration). After 48 hours, apoptosis was detected using the Roche Cell Death Assay.

[9] = 91-day oral study in dogs; type: in vivo
[10] = biological target: PDE10 from 786-O (Homo sapiens, UniProt Q9Y233); assay: Inhibition and kinetics of PDE10 from 786-O (pooled fractions of the center peak); type: biochemical; details: IC50 on PDE10 from 786-O (inhibition of cGMP PDE activity), pooled center-peak fractions; FIG. 8, 9
Sequence of PDE10 from 786-O (Q9Y233 290-1055 limits assumed): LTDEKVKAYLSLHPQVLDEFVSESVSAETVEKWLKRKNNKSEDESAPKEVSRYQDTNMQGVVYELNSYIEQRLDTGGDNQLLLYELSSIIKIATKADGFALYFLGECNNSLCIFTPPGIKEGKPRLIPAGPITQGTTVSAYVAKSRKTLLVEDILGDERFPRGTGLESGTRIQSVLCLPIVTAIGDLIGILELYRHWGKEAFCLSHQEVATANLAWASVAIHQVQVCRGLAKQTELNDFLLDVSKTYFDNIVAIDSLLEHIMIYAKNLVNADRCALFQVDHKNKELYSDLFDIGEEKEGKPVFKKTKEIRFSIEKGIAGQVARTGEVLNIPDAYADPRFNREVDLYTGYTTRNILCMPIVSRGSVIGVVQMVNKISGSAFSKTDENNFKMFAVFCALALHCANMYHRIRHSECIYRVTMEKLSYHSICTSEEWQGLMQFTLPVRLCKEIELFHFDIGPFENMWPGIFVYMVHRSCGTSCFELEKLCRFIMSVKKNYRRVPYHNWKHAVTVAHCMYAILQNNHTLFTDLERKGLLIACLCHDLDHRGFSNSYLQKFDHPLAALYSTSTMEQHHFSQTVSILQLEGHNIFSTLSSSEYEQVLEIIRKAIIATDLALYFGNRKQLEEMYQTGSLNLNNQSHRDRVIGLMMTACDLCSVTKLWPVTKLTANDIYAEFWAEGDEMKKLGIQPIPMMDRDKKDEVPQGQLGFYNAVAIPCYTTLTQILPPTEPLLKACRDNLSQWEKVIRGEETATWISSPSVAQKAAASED
Protocol: (§1) Fractions were pooled from a 786-O profile from the center peak.
as §1
(§2) Protein assays were determined using the Bio-Rad DC Protein Assay. A nonlinear regression to the Michalis-Menten equation in Prism was used to determine the Km and Vmax.
as §2

[11] = 28-day study in rats; type: in vivo
Protocol: A 28-day study in rats was also carried out at 0, 50, 500 and 2000 mg/kg/day.

[12] = Acute toxicity study in rats; details: rat, in vivo
[13] = tested on: PDE4; assay: PDE inhibition, PDE4 (similar protocols); type: biochemical
[14] = dog, in vivo
Protocol: as §3

[15] = tested on: 786-O cells; type: cell-based; details: Homo sapiens, 786-0, 144 h; 6 days with drug, sulforhodamine B
Protocol: Testing of Neoplastic Cell Growth Inhibition of PDE10-Inhibiting Compounds on Renal Cell Carcinoma (786-O) Cells. […] After 24 hours, the media was removed, and the same media containing the drug was added to the cells (0.1% DMSO final concentration).

[16] = biological target: T1, PDE5 (Homo sapiens, UniProt O76074); assay: cGMP PDE inhibition, PDE5; type: biochemical
T1 construct: partially purified cGMP-specific PDE isolated from HT-29 cells; endogenous in cells; host or cells: HT-29 cells (partially purified enzyme)
Source text: Compounds of this invention are also PDE2 and PDE5 inhibitors as taught in part U.S. patent application Ser. No. 09/046,739 filed Mar. 24, 1998, now abandoned. Compounds can be tested for inhibitory effect on phosphodiesterase activity using either the enzyme isolated from any tumor cell line such as HT-29 or SW-480. […] (Thompson, W. J., Teraski, W. L., Epstein, P. M., Strada, S. J., Advances in Cyclic Nucleotide Research, 10:69-92, 1979, which is incorporated herein by reference). In brief, asolution of defined substrate ^3H-cGMP specific activity (0.2 μM; 100,000 cpm; containing 40 mM Tris-HCl (pH 8.0), 5 mM MgCl2 and 1 mg/ml BSA) is mixed with the drug to be tested in a total volume of 400μl. The mixture is incubated at 30° C. for 10 minutes with partially purified cGMP-specific PDE isolated from HT-29 cells. Reactions are terminated, for example, by boiling the reaction mixture for 75 seconds. After cooling on ice, 100 μl of 0.5 mg/ml snake venom (O. Hannah venom available from Sigma) is added and incubated for 10 min at 30° C. […] The amount of radioactivity in the breakthrough and the wash from the columns in then measured with a scintillation counter. The degree of PDE5 inhibition is determined by calculating the amount of radioactivity in drug-treated reactions and comparing against a control sample (a reaction mixture lacking the tested compound).

[17] = Phase I trial in patients with a range of solid tumors; type: in vivo
Protocol: Cycles were repeated without a treatment-free interval. Doses ranged from 100 to 800 mg/day.

[18] = 28 days, 50, 500 and 2000 mg/kg/day

## CC1=C(CC(=O)NCc2ccccc2)c2cc(F)ccc2C1=Cc1ccncc1 [Compound 38, (Z)-5-Fluoro-2-methyl-(4-pyridylidene)-3-(N-benzyl)indenylacetamide Hydrochloride]
[1]; ip, 1000 mg/kg
  Body weight gain: reduced body weight gain
  Necropsy finding: mesenteric adhesions seen in some animals
[1]; po, 2000 mg/kg
  Body weight gains: slightly reduced
[2]
  Side effects: no significant side effects
[3]
  LD50: > 1000 mg/kg
[4]; 400 mg daily, renal cell carcinoma patients
  Serious Adverse Events due to the drug: No Serious Adverse Event due to the drug was reported
[4]; interim evaluation of 16 evaluable patients, 400 mg daily (200 mg twice daily), minimum of eight weeks
  Patients who achieved stable disease: six
[5]; 50 mg/kg/day
  Signs of toxicity: no observable signs of toxicity
[5]; 500 mg/kg/day
  Treatment-related effects: an increase in absolute and relative liver weights in female rats
[5]; 2000 mg/kg/day
  Treatment-related effects: labored breathing and/or abnormal respiratory sounds, decreased weights gains and food consumption in male rats, and increased liver weights in female rats
[5]; any dose level (50, 500, 2000 mg/kg/day)
  Hematology, blood chemistry, microscopic pathology: No hematological or blood chemistry changes nor any microscopic pathology changes
[6]; 91 days
  Clinical biochemistry and hematology: no changes
  Microscopic findings: slight hepatocellular hypertrophy at 200 and 500 mg/kg/day groups, follicular cell hypertrophy at 500 mg/kg/day and increase in accumulation of hyalin droplets in the kidneys at 200 and 500 mg/kg/day group
[6]; 91 days, males and females at 200 and 500 mg/kg/day
  Organ weights: dose-related trend to increased liver and thyroid/parathyroid weights
[6]; oral, 91 consecutive days, 50, 200 and 500 mg/kg/day
  Toxicological effects: did not produce any major toxicological effects
[7]
  IC50: 3 µM
[8]
  IC50: 1 µM
[9]; 91 days
  Microscopic alterations (liver): no microscopic alterations
  Tolerability: well tolerated
[9]; 91 days, 150 and 300 mg/kg/day groups
  Feces: Orange discoloration of the feces
[9]; 91 days, highest dose group
  Body weights: Slightly lowered body weights
  Liver weights: increased liver weights
[9]; oral, 91 consecutive days, 50, 150 and 300 mg/kg/day
  Toxicological effects: no toxicological effects
[10]
  IC50: 3.7 µM
[11]; 28 days
  Macroscopic tissue changes at necropsy: No macroscopic tissue changes
[11]; 28 days, 2000 mg/kg/day
  Liver weights: statistically significant increase
  Thyroid weights: statistically significant increases
[11]; [18]
  Body weight changes, ophthalmoscopic examinations, hematological and blood chemistry values, urinalysis: unremarkable
  Clinical observations: no abnormal clinical observations
[11]; 28 days, generally a small number of animals at 2000 mg/kg/day, one female at 500 mg/kg/day
  Histopathological evaluation of tissues: traces of follicular cell hypertrophy, increased numbers of mitotic figures (suggestive of possible cell proliferation) in the thyroid gland and mild centrilobular hypertrophy in the liver
[11]; 28 days, lower doses
  Slight liver and thyroid increases: not statistically significant
[12]; ip, 1000 mg/kg
  LD50: > 1000 mg/kg
[12]; po
  LD50: > 2000 mg/kg
[13]
  IC50: 6 µM
[14]; 1000 mg/kg
  Signs of toxicity: no signs of toxicity
[14]; 1000 mg/kg/day
  Signs of drug-related effects: At no time in either dosing phase were any obvious signs of drug-related effects observed
[15]
  IC50: 1.1 µM
[16]
  IC50: 4 µM
[17]; 21 patients, orally twice daily for 28 consecutive days, 100 to 800 mg/day
  Tolerability of therapy: well tolerated overall
[17]; 100 to 800 mg/day
  Maximum tolerated dose: not reached
[17]; up to 800 mg TDD, orally, twice-daily schedule
  Toxicity: minimally toxic
